Measurements published in patent US4110438A, “Method of treating depression” (American Home Products Corporation, priority 1977, dated 1978).

What was measured:
[1] = tested on: patients suffering from depression caused by stress or emotional exhaustion; test: clinical investigation of LH-RH in patients suffering from depression; type: in vivo, human
Experimental: Twenty-one patients, suffering from depression caused by stress or emotional exhaustion, were selected for the investigation. Fifteen were female adults, five were male adults and one patient was a young person […]. The latter patient suffered from existential depression and cryptorchidism. Each patient received 300 mcg of LH-RH in a single or divided dose once a month. In this instance the LH-RH was in the form of its hydrochloride acid addition salt and was prepared according to the syntheses reported by Immer et al., noted above. […] Relief from depression usually was observed within 12 hours and in almost all cases within 24 hours. The patients became more cheerful and aware of feeling much better. […] This latter patient sufferred from depression and sexual frigidity; however, in this instance there was no anhedonia regression and some erotic pulsations did occur. […] The greatest hormonal responses coincided with the most evident clinical improvement. In a control study, five patients with established depression were treated with an injection of only the vehicle for the above noted LH-RH dosage.

[2] = tested on: patients with endogenous depression; conditions: given in randomized order on days 1, 3 and 5; Lancet 1974; cited from earlier work

CC(C)C[C@H](NC(=O)CNC(=O)[C@H](Cc1ccc(O)cc1)NC(=O)[C@H](CO)NC(=O)[C@H](Cc1c[nH]c2ccccc12)NC(=O)[C@H](Cc1c[nH]cn1)NC(=O)[C@@H]1CCC(=O)N1)C(=O)N[C@@H](CCCNC(=N)N)C(=O)N1CCC[C@H]1C(=O)NCC(N)=O [LH-RH, (pyro)-Glu-His-Trp-Ser-Tyr-Gly-Leu-Arg-Pro-Gly-NH2]
sleep, appetite and disposition for work ([1]; 21 patients, 300 mcg once a month): Sleep and appetite were regularized as well as disposition for work
time to relief from depression (almost all cases) ([1]; 21 patients, 300 mcg once a month, in almost all cases): ≤ 24 h
libido response ([1]; 21 patients, 300 mcg once a month, most noticeable in female patients): An improvement in libido response occurred frequently
time to relief from depression (usually) ([1]; 21 patients, 300 mcg once a month, usually observed): ≤ 12 h
onset of response after administration ([1]; 21 patients, 300 mcg single or divided dose once a month, hydrochloride salt): response was immediate
time until symptoms of depression disappear ([1]; 100-800 mcg LH-RH or acid addition salt, moderately to severely depressed patient, usually): ≤ 24 h
results in stress induced (reactive) depression ([1]; dosages 100-800 mcg, patients suffering from stress induced depression): Especially effective and favorable results
hormonal responses: serum levels of luteinizing hormone, follicular stimulating hormone, prolactin and thyrotrophin releasing hormone ([1]; monitored during treatment, greatest responses coincided with most evident clinical improvement): increases in the serum levels
patients not responding ([1]; of 21 patients, 300 mcg once a month): Only one patient did not respond
gonadotropin response in younger patients (growth of penis, development of scrota) ([1]; younger patients, measured at 30 and 60 days after beginning of treatment): there was a gonadotropin response
clinical importance in the treatment of endogenous depression [2]: of no clinical importance

NC(=O)[C@@H]1CCCN1C(=O)[C@H](Cc1cnc[nH]1)NC(=O)[C@@H]1CCC(=O)N1 [thyrotropin releasing hormone]
clinical importance in the treatment of endogenous depression [2]: of no clinical importance
